Assay results reported in US20120065187A1 (ALCON RESEARCH, LTD, priority 2008, published 2012).
Structures can show the parent of a compound that is named as a salt.

Target: T1, human H4 (Homo sapiens, UniProt Q9H3N8)
T1 construct: host or cells: CHO-K1
Assay: In vitro histamine receptor cell-based assay (aequorin bioluminescence), H4 antagonism
Conditions: CHO-K1 cells expressing human H4, aequorin and Gα16; histamine at EC80; read-out: H4 Antagonist EC50
Protocol: The cell-based assays utilize an aequorin dependent bioluminescence signal. Doubly-transfected, stable CHO-K1 cell lines expressing human H1 or H4, mitochondrion-targeted aequorin, and (H4 only) human G protein Gα16 are obtained from Perkin-Elmer. Cells are maintained in F12 (Ham's) growth medium, containing 10% (vol./vol.) fetal bovine serum, penicillin (100 IU/mL), streptomycin (0.1 mg/mL), zeocin (0.25 mg/mL) and geneticin (0.40 mg/mL). Cell media components are from Invitrogen, Inc. One day prior to assay, the growth medium is replaced with the same, excluding zeocin and geneticin.
For assay preparation, growth medium is aspirated, and cells are rinsed with calcium-free, magnesium-free phosphate-buffered saline, followed by two to three minute incubation in Versene (Invitrogen, Inc.) at 37° C. Assay medium (DMEM:F12 [50:50], phenol-red free, containing 1 mg/mL protease-free bovine serum albumin) is added to collect the released cells, which are then centrifuged. The cell pellet is re-suspended in assay medium, centrifuged once more, and re-suspended in assay medium to a final density of 5×10^6 cells/mL. Coelenterazine-h dye (500 μM in ethanol) is added to a final concentration of 5 μM, and mixed immediately. The conical tube containing the cells is then wrapped with foil to protect the light-sensitive dye. The cells are incubated for four hours further at room temperature (approximately 21° C.) with end-over-end rotation to keep them in suspension.
Just before assay, the dye-loaded cells are diluted to 0.75×10^6 cells/mL (H1 receptor) or 1.5×10^6 cells/mL (H4 receptor) with additional assay medium. Cells are dispensed to 1536 well micro-titer plates at 3 μL/well. To assay receptor antagonism, 60 nl of 100× concentration test compounds in 100% dimethyl sulfoxide (DMSO) are dispensed to the wells, one compound per well, by passive pin transfer, and the plates are incubated for 15 minutes at room temperature. […] The pipette dispenses 3 μL/well of agonist (histamine, at twice the final concentration, where final concentration is a previously determined EC80) in assay medium, with concurrent bioluminescence detection. Agonist activity of test compounds is excluded by separate assays that measure response to test compounds immediately, without added histamine agonist.
CCD image capture on the Lumilux includes a 5 second baseline read prior to agonist addition, and generally a 40 second read per plate after agonist addition. A decrease in bioluminescence signal (measured either as area-under-the-curve, or maximum signal amplitude minus minimum signal amplitude) correlates with receptor antagonism in a dose dependent manner. The negative control is DMSO lacking any test compound. For antagonist assays, the positive controls are diphenhydramine (2-Diphenylmethoxy-N,N-dimethylethylamine, 10 μM final concentration, H1 receptor) or JNJ7777120 (1-[(5-Chloro-1H-indol-2-yl)carbonyl]-4-methyl-piperazine, 10 μM final concentration, H4 receptor). Efficacy is measured as a percentage of positive control activity.

SMILES | EC50 [µM]
FC(F)(F)c1ccc2c(c1)nc(N1CCNCC1)c1nocc12 [Example 221, 4-(piperazin-1-yl)-7-(trifluoromethyl)isoxazolo[3,4-c]quinoline] | > 10
Clc1ccc2c(c1)nc(N1CCNCC1)c1nocc12 [Example 225, 7-chloro-4-(piperazin-1-yl)isoxazolo[3,4-c]quinoline] | < 10
CN1CCN(c2nc3cc(F)c(F)cc3c3conc23)CC1 [Example 226, 7,8-difluoro-4-(4-methylpiperazin-1-yl)isoxazolo[3,4-c]quinoline] | < 10
Fc1cc2nc(N3CCNCC3)c3nocc3c2cc1F [Example 227, 7,8-difluoro-4-(piperazin-1-yl)isoxazolo[3,4-c]quinoline] | < 10
CN1CCN(c2nc3cc(Br)ccc3c3conc23)CC1 [Example 228, 7-bromo-4-(4-methylpiperazin-1-yl)isoxazolo[3,4-c]quinoline] | < 10
Brc1ccc2c(c1)nc(N1CCNCC1)c1nocc12 [Example 229, 7-bromo-4-(piperazin-1-yl)isoxazolo[3,4-c]quinoline] | > 10
Clc1ccc2nc(N3CCN4CCCC4C3)c3nocc3c2c1 (stereo not shown) [Example 230, 8-chloro-4-(hexahydropyrrolo[1,2-a]pyrazin-2(1H)-yl)isoxazolo[3,4-c]quinoline] | < 10
FC(F)(F)c1ccc2nc(N3CCNCC3)c3[nH]ncc3c2c1 [Example 231, 4-(piperazin-1-yl)-8-(trifluoromethyl)-3H-pyrazolo[3,4-c]quinoline] | < 10
CN1CCN(c2nc3ccc(Br)cc3c3c[nH]nc23)CC1 [Example 232, 8-bromo-4-(4-methylpiperazin-1-yl)-2H-pyrazolo[3,4-c]quinoline] | < 10
Brc1ccc2nc(N3CCNCC3)c3n[nH]cc3c2c1 [Example 233, 8-bromo-4-(piperazin-1-yl)-2H-pyrazolo[3,4-c]quinoline] | < 10
CN1CCN(c2nc3ccc(Br)cc3c3cn(C)nc23)CC1 [Example 234, 8-bromo-2-methyl-4-(4-methylpiperazin-1-yl)-2H-pyrazolo[3,4-c]quinoline] | < 10
Cn1cc2c(n1)c(N1CCNCC1)nc1ccc(Br)cc12 [Example 235, 8-bromo-2-methyl-4-(piperazin-1-yl)-2H-pyrazolo[3,4-c]quinoline] | < 10
Cc1nc2c(N3CCN(C)CC3)nc3cc(F)c(Br)cc3n2n1 [Example 237, 8-bromo-7-fluoro-2-methyl-4-(4-methylpiperazin-1-yl)-[1,2,4]triazolo[1,5-a]quinoxaline] | < 10
Cc1nc2c(N3CCNCC3)nc3cc(F)c(Br)cc3n2n1 [Example 238, 8-bromo-7-fluoro-2-methyl-4-(piperazin-1-yl)-[1,2,4]triazolo[1,5-a]quinoxaline] | < 10
Cc1nc2c(N3CCN(C)CC3)nc3cc(F)c(C)cc3n2n1 [Example 239, 7-fluoro-2,8-dimethyl-4-(4-methylpiperazin-1-yl)-[1,2,4]triazolo[1,5-a]quinoxaline] | < 10
Cc1nc2c(N3CCNCC3)nc3cc(F)c(C)cc3n2n1 [Example 240, 7-fluoro-2,8-dimethyl-4-(piperazin-1-yl)-[1,2,4]triazolo[1,5-a]quinoxaline] | < 10
Cc1nc2c(N3CCN(C)CC3)nc3ccc(Br)cc3n2n1 [Example 241, 8-bromo-2-methyl-4-(4-methylpiperazin-1-yl)-[1,2,4]triazolo[1,5-a]quinoxaline] | < 10
Cc1nc2c(N3CCNCC3)nc3ccc(Br)cc3n2n1 [Example 242, 8-bromo-2-methyl-4-(piperazin-1-yl)-[1,2,4]triazolo[1,5-a]quinoxaline] | < 10
CN1CCN(c2nc3ccc(Cl)cc3n3ncnc23)CC1 [Example 243, 8-chloro-4-(4-methylpiperazin-1-yl)-[1,2,4]triazolo[1,5-a]quinoxaline] | < 10
CCOC(=O)c1nc2c(N3CCN(C)CC3)nc3ccc(Cl)cc3n2n1 [Example 244, Ethyl 8-chloro-4-(4-methylpiperazin-1-yl)-[1,2,4]triazolo[1,5-a]quinoxaline-2-carboxylate] | > 10
Cc1nc2c3cc(Cl)cc(F)c3nc(N3CCN(C)CC3)n2n1 [Example 246, 9-chloro-7-fluoro-2-methyl-5-(4-methylpiperazin-1-yl)-[1,2,4]triazolo[1,5-c]quinazoline] | < 10
Cc1nc2c3cc(Cl)cc(F)c3nc(N3CCNCC3)n2n1 [Example 247, 9-chloro-7-fluoro-2-methyl-5-(piperazin-1-yl)-[1,2,4]triazolo[1,5-c]quinazoline] | < 10
Cc1nc2c3cc(Br)cc(F)c3nc(N3CCN(C)CC3)n2n1 [Example 248, 9-bromo-7-fluoro-2-methyl-5-(4-methylpiperazin-1-yl)-[1,2,4]triazolo[1,5-c]quinazoline] | < 10

Further lines, results first:

EC50 [µM] | SMILES
< 10 | CN1CCN(c2nc3ccc(C(F)(F)F)c(F)c3n3nnnc23)CC1 [Example 171, 9-Fluoro-4-(4-methylpiperazin-1-yl)-8-(trifluoromethyl)tetrazolo[1,5-a]quinoxaline]
< 10 | Fc1cc2c(cc1Cl)nc(N1CCNCC1)c1nnnn12 [Example 202, 7-chloro-8-fluoro-4-(piperazin-1-yl)tetrazolo[1,5-a]quinoxaline]
< 10 | CN1CCN(c2nc3cc(Cl)c(F)cc3n3nnnc23)CC1 [Example 203, 7-chloro-8-fluoro-4-(4-methylpiperazin-1-yl)tetrazolo[1,5-a]quinoxaline]
< 10 | CN1CCN(c2nc3ccc(Br)cc3n3nnnc23)CC1 [Example 204, 8-bromo-4-(4-methylpiperazin-1-yl)tetrazolo[1,5-a]quinoxaline]
< 10 | Brc1ccc2nc(N3CCNCC3)c3nnnn3c2c1 [Example 205, 8-bromo-4-(piperazin-1-yOtetrazolo[1,5-a]quinoxaline]
< 10 | Fc1cc(C(F)(F)F)cc2c1nc(N1CCNCC1)c1nnnn12 [Example 206, 6-fluoro-4-(piperazin-1-yl)-8-(trifluoromethyl)tetrazolo[1,5-a]quinoxaline hydrochloride]
< 10 | CN1CCN(c2nc3c(F)cc(C(F)(F)F)cc3n3nnnc23)CC1 [Example 207, 6-fluoro-4-(4-methylpiperazin-1-yl)-8-(trifluoromethyl)tetrazolo[1,5-a]quinoxaline hydrochloride]
< 10 | CN1CCN(c2nc3c(F)cc(Br)cc3n3cnnc23)CC1 [Example 208, 8-bromo-6-fluoro-4-(4-methylpiperazin-1-yl)-[1,2,4]triazolo[4,3-a]quinoxaline]
< 10 | Fc1cc(Br)cc2c1nc(N1CCNCC1)c1nncn12 [Example 209, 8-bromo-6-fluoro-4-(piperazin-1-yl)-[1,2,4]triazolo[4,3-a]quinoxaline]
< 10 | CN1CCN(c2nc3c(F)cc(Br)cc3n3nnnc23)CC1 [Example 210, 8-bromo-6-fluoro-4-(4-methylpiperazin-1-yl)tetrazolo[1,5-a]quinoxaline]
< 10 | Fc1cc2nc(N3CCNCC3)c3nnnn3c2cc1Br [Example 211, 8-bromo-7-fluoro-4-(piperazin-1-yl)tetrazolo[1,5-a]quinoxaline]
< 10 | CN1CCN(c2nc3cc(F)c(Br)cc3n3nnnc23)CC1 [Example 212, 8-bromo-7-fluoro-4-(4-methylpiperazin-1-yl)tetrazolo[1,5-a]quinoxaline]
< 10 | Clc1ccc2nc(N3CCN4CCCC4C3)c3nnnn3c2c1 (stereo not shown) [Example 213, 8-chloro-4-(hexahydropyrrolo[1,2-a]pyrazin-2(1H)-yl)tetrazolo[1,5-a]quinoxaline]
< 10 | CN1CCN(c2nc3cc(Cl)ccc3c3conc23)CC1 [Example 224, 7-chloro-4-(4-methylpiperazin-1-yl)isoxazolo[3,4-c]quinoline]
